From ChEMBL document CHEMBL1909046, “DrugMatrix in vitro pharmacology data”
pIC50, pKi: −log10 of the molar value. Where a SMILES comes first, the peptide text is derived from it. Bridges are numbered along the chain shown (N, C = ends). [ ]: non-standard residue; d: D form. The star is where a group is joined. Threoninol(2S,3R) = C[C@@H](O)[C@H](CO)N*

How the values were obtained:
[1] = DRUGMATRIX: Purinergic P2X radioligand binding (ligand: [3H] alpha, beta-Methylene-ATP); type: cell membranes, Oryctolagus cuniculus, New Zealand albino, Urinary bladder, Membrane; details: Not Active = under 50% inhibition at 10 µM
[2] = DRUGMATRIX: Interleukin IL-1 radioligand binding (ligand: [125I] interleukin 1beta); type: cell membranes, Membrane; details: nih3t3; Not Active = under 50% inhibition at 10 µM
[3] = molecular target: T1, Alpha-2A adrenergic receptor (Homo sapiens, UniProt P08913); type: cell membranes, Sf9, Membrane; details: for pIC50: read-out: IC50; for pKi: read-out: Ki; on all read-outs here: in other assays of this panel Not Active means under 50% inhibition at 10 µM
T1 sequence (P08913 whole entry): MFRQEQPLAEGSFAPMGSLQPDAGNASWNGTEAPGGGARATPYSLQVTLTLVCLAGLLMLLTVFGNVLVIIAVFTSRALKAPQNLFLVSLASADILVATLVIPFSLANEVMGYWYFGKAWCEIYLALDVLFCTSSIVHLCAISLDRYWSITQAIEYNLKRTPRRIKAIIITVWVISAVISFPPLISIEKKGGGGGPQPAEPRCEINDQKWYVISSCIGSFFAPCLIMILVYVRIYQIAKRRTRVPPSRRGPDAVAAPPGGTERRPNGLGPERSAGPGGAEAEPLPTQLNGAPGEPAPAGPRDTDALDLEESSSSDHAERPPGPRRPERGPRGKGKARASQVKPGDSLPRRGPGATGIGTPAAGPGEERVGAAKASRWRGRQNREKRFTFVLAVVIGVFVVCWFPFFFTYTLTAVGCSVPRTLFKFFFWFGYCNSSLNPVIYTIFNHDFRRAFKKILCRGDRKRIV

[4] = molecular target: Beta-2 adrenergic receptor (Homo sapiens, UniProt P07550); assay: DRUGMATRIX: Adrenergic beta2 radioligand binding (ligand: [3H] CGP-12177); type: cell membranes, Membrane; details: cho; Not Active = under 50% inhibition at 10 µM
Substance-P receptor = Substance-P receptor (Homo sapiens, UniProt P25103); type: cell membranes, Membrane; details: cho; further: in other assays of this panel Not Active means under 50% inhibition at 10 µM
Substance-P receptor, sequence (P25103 whole entry): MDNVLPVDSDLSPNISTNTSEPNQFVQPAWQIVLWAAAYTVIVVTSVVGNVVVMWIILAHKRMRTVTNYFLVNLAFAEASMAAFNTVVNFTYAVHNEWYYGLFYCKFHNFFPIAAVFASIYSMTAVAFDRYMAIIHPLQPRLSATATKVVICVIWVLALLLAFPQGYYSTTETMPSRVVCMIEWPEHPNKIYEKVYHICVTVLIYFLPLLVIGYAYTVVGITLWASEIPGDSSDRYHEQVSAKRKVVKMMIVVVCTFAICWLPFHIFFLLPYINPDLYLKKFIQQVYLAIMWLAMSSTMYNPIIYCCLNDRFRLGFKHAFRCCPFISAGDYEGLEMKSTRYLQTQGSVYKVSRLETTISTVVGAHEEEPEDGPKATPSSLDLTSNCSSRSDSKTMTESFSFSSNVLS

[5] = molecular target: 5-hydroxytryptamine receptor 4 (Cavia porcellus, UniProt O70528); type: cell membranes, Dunkin-Hartley, Striatum, Membrane; further: in other assays of this panel Not Active means under 50% inhibition at 10 µM
5-hydroxytryptamine receptor 4, sequence (O70528 whole entry): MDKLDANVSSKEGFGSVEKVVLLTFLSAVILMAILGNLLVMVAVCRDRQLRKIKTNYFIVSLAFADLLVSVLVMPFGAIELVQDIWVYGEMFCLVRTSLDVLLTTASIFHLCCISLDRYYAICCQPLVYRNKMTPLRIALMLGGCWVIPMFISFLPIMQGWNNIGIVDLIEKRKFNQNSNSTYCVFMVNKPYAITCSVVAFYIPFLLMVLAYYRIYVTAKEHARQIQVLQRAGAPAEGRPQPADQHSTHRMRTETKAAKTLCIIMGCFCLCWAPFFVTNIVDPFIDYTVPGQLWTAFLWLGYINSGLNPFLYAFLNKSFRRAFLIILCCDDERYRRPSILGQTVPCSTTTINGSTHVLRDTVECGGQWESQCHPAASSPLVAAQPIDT

D(4) dopamine receptor = molecular target: T2, D(4) dopamine receptor (Homo sapiens, UniProt P21917); assay: DRUGMATRIX: Dopamine D4.2 radioligand binding (ligand: [3H] Spiperone); type: cell membranes, Membrane; details: cho-k1; Not Active = under 50% inhibition at 10 µM
T2 sequence (P21917 whole entry): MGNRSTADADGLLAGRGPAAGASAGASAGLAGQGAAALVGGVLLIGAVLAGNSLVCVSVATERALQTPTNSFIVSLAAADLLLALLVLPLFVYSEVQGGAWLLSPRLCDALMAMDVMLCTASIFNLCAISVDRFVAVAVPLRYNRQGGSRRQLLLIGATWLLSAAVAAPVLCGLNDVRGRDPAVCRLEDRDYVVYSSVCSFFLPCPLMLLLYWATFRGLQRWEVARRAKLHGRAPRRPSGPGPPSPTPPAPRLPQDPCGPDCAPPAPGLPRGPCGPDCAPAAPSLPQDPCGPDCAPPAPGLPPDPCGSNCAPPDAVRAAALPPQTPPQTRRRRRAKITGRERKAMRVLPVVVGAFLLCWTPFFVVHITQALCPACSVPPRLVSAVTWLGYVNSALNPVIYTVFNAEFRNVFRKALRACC

Compound	IC50 [1]	Ki [1]	IC50 [2]	Ki [2]	pIC50 ([3]; sf9)	pKi ([3]; sf9)	IC50 [4]	Ki [4]	IC50 (Substance-P receptor)	Ki (Substance-P receptor)	IC50 [5]	Ki [5]	IC50 (D(4) dopamine receptor)	Ki (D(4) dopamine receptor)	IC50 ([3]; sf9)	pIC50 [3]	pKi [3]	Ki ([3]; sf9)
CADMIUM DICHLORIDE	Not Active	Not Active	Not Active	Not Active	5.16	5.59	Not Active	Not Active	Not Active	Not Active	Not Active	Not Active	Not Active	Not Active	–	–	–	–
CCCN(CCC)C(=O)C(CCC(=O)O)NC(=O)c1ccccc1 (stereo not given) [PROGLUMIDE]	Not Active	Not Active	Not Active	Not Active	–	–	Not Active	–	Not Active	–	Not Active	–	Not Active	–	Not Active	–	–	–
O=C(N[C@H](CO)[C@H](O)c1ccc([N+](=O)[O-])cc1)C(Cl)Cl [CHLORAMPHENICOL]	Not Active	Not Active	Not Active	Not Active	–	–	Not Active	–	Not Active	–	Not Active	–	Not Active	–	Not Active	–	–	–
CCCCOc1ccc(OCCCN2CCOCC2)cc1 [PRAMOXINE]	Not Active	Not Active	Not Active	Not Active	–	–	Not Active	–	Not Active	–	Not Active	–	Not Active	–	Not Active	–	–	–
CC(C)(C(=O)c1cccnc1)c1cccnc1 [METYRAPONE]	Not Active	Not Active	Not Active	Not Active	–	–	Not Active	–	Not Active	–	Not Active	–	Not Active	–	Not Active	–	–	–
CC(=O)Nc1cccc(O)c1 [METACETAMOL]	Not Active	Not Active	Not Active	Not Active	–	–	Not Active	–	Not Active	–	Not Active	–	Not Active	–	Not Active	–	–	–
NC(=O)c1cnccn1 [PYRAZINAMIDE]	Not Active	Not Active	Not Active	Not Active	–	–	Not Active	–	Not Active	–	Not Active	–	Not Active	–	Not Active	–	–	–
CC[C@@H](CO)NCCN[C@@H](CC)CO [ETHAMBUTOL]	Not Active	Not Active	Not Active	Not Active	–	–	Not Active	–	Not Active	–	Not Active	–	Not Active	–	Not Active	–	–	–
CC(C)(Oc1ccc(C2CCCc3ccccc32)cc1)C(=O)O (stereo not given) [NAFENOPIN]	Not Active	Not Active	Not Active	Not Active	–	–	Not Active	–	Not Active	–	Not Active	–	Not Active	–	Not Active	–	–	–
C[C@@H]1C[C@@H]([C@H](O)CC2CC(=O)NC(=O)C2)C(=O)[C@@H](C)C1 [CYCLOHEXIMIDE]	Not Active	Not Active	Not Active	Not Active	–	–	Not Active	–	Not Active	–	Not Active	–	Not Active	–	Not Active	–	–	–
CCn1cc(C(=O)O)c(=O)c2cc(F)c(N3CCN(C)CC3)cc21 [PEFLOXACIN]	Not Active	Not Active	Not Active	Not Active	–	–	Not Active	–	Not Active	–	Not Active	–	Not Active	–	Not Active	–	–	–
CCN(CC)CCOC(=O)c1ccc(N)cc1 [PROCAINE]	Not Active	Not Active	Not Active	Not Active	–	–	Not Active	–	Not Active	–	Not Active	–	Not Active	–	Not Active	–	–	–
CCCC(CCC)C(=O)O [VALPROIC ACID]	Not Active	Not Active	Not Active	Not Active	–	–	Not Active	–	Not Active	–	Not Active	–	Not Active	–	Not Active	–	–	–
S=C=Nc1cccc2ccccc12 [1-NAPHTHYLISOTHIOCYANATE]	Not Active	Not Active	Not Active	Not Active	–	–	Not Active	–	Not Active	–	Not Active	–	Not Active	–	–	5.20	5.63	–
COc1ccc2cc([C@H](C)C(=O)O)ccc2c1 [NAPROXEN]	Not Active	Not Active	Not Active	Not Active	–	–	Not Active	–	Not Active	–	Not Active	–	Not Active	–	Not Active	–	–	–
Cc1ccccc1C(=O)N1CCC(Cc2ccccc2)CC1	Not Active	Not Active	Not Active	Not Active	–	–	Not Active	–	Not Active	–	Not Active	–	Not Active	–	Not Active	–	–	–
C[C@@H](O)[C@H](CO)NC(=O)[C@@H]1CSSC[C@H](NC(=O)[C@H](N)Cc2ccccc2)C(=O)N[C@@H](Cc2ccccc2)C(=O)N[C@H](Cc2c[nH]c3ccccc23)C(=O)N[C@@H](CCCCN)C(=O)N[C@@H]([C@@H](C)O)C(=O)N1 (H-[dF]CF[dW]KTC-{Threoninol(2S,3R)}; disulfide 2-7)	Not Active	Not Active	Not Active	Not Active	–	–	Not Active	–	Not Active	–	Not Active	–	Not Active	–	Not Active	–	–	–
Cc1nccn1CC1CCc2c(c3ccccc3n2C)C1=O (stereo not given) [ONDANSETRON]	Not Active	Not Active	Not Active	Not Active	–	–	Not Active	–	Not Active	–	Not Active	–	Not Active	–	Not Active	–	–	–
C#C[C@]1(O)CC[C@H]2[C@@H]3CCc4cc(OC)ccc4[C@H]3CC[C@@]21C [MESTRANOL]	Not Active	Not Active	Not Active	Not Active	–	–	Not Active	–	Not Active	–	Not Active	–	Not Active	–	Not Active	–	–	–
COc1cc2c(c3oc(=O)c4c(c13)CCC4=O)[C@@H]1C=CO[C@@H]1O2 [AFLATOXIN]	Not Active	Not Active	Not Active	Not Active	–	–	Not Active	Not Active	Not Active	Not Active	Not Active	Not Active	Not Active	Not Active	Not Active	–	–	Not Active
CC1(C)O[C@@H]2C[C@H]3[C@@H]4C[C@H](F)C5=CC(=O)CC[C@]5(C)[C@H]4[C@@H](O)C[C@]3(C)[C@]2(C(=O)CO)O1 [FLURANDRENOLIDE]	Not Active	Not Active	Not Active	Not Active	–	–	Not Active	–	Not Active	–	Not Active	–	Not Active	–	Not Active	–	–	–
CC1(C)O[C@@H]2C[C@H]3[C@@H]4C[C@H](F)C5=CC(=O)C=C[C@]5(C)[C@@]4(F)[C@@H](O)C[C@]3(C)[C@]2(C(=O)CO)O1 [FLUOCINOLONE ACETONIDE]	Not Active	Not Active	Not Active	Not Active	–	–	Not Active	–	Not Active	–	Not Active	–	Not Active	–	Not Active	–	–	–
CC(C(=O)O)c1cccc(C(=O)c2ccccc2)c1 (stereo not given) [KETOPROFEN]	Not Active	Not Active	Not Active	Not Active	–	–	Not Active	–	Not Active	–	Not Active	–	Not Active	–	Not Active	–	–	–
NC(=O)NO [HYDROXYUREA]	Not Active	Not Active	Not Active	Not Active	–	–	Not Active	–	Not Active	–	Not Active	–	Not Active	–	Not Active	–	–	–
CCCC(=O)Nc1ccc(OCC(O)CNC(C)C)c(C(C)=O)c1 (stereo not given) [ACEBUTOLOL]	Not Active	Not Active	Not Active	Not Active	–	–	–	–	Not Active	–	Not Active	–	Not Active	–	Not Active	–	–	–
